From the supplement of paper PMC10307832

Assays:
Test in all cases: relative viability (nuclei count vs DMSO), 5 days (fraction); higher = more cells survive
[1] = system: NCI-H650
Summary of the method: (§1)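 One day after seeding in 1536-well plates, lung cancer cell lines were dosed by pin tool. Dosing was either single-drug or a fixed anchor-drug dose plus five library-drug doses (not always all listed) in √10 steps. After 5 days, nuclei were stained in one fix-and-stain step and counted on 4× images, and relative viability is the nuclei count of treated wells over that of vehicle wells, given as the median of duplicate plates.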

[2] = system: NCI-H1651
Summary of the method: as §1

[3] = system: NCI-H1623
Summary of the method: as §1

[4] = system: NCI-H1648
Summary of the method: as §1

[5] = system: NCI-H838
Summary of the method: as §1

[6] = system: RERF-LC-KJ
Summary of the method: as §1

[7] = system: NCI-H520
Summary of the method: as §1

[8] = system: NCI-H1944
Summary of the method: as §1

SMILES	relative viability ([1]; first compound 0.08 µM)	relative viability ([1]; first compound 0.253 µM)	relative viability ([1]; first compound 0.8 µM)	relative viability ([1]; first compound 8 µM)	relative viability ([2]; first compound 0.08 µM)	relative viability ([2]; first compound 0.253 µM)	relative viability ([2]; first compound 0.8 µM)	relative viability ([2]; first compound 2.53 µM)	relative viability ([2]; first compound 8 µM)	relative viability ([3]; first compound 0.08 µM)	relative viability ([3]; first compound 0.253 µM)	relative viability ([3]; first compound 0.8 µM)	relative viability ([3]; first compound 2.53 µM)	relative viability ([3]; first compound 8 µM)	relative viability ([4]; first compound 0.08 µM)	relative viability ([4]; first compound 0.253 µM)	relative viability ([4]; first compound 0.8 µM)	relative viability ([4]; first compound 2.53 µM)	relative viability ([4]; first compound 8 µM)	relative viability ([5]; first compound 0.08 µM)	relative viability ([5]; first compound 0.253 µM)	relative viability ([5]; first compound 0.8 µM)	relative viability ([5]; first compound 2.53 µM)	relative viability ([5]; first compound 8 µM)	relative viability ([6]; first compound 0.08 µM)	relative viability ([6]; first compound 0.253 µM)	relative viability ([6]; first compound 0.8 µM)	relative viability ([6]; first compound 2.53 µM)	relative viability ([6]; first compound 8 µM)	relative viability ([7]; first compound 0.08 µM)	relative viability ([7]; first compound 0.253 µM)	relative viability ([7]; first compound 0.8 µM)	relative viability ([7]; first compound 2.53 µM)	relative viability ([7]; first compound 8 µM)	relative viability ([8]; first compound 0.08 µM)	relative viability ([8]; first compound 0.253 µM)	relative viability ([8]; first compound 0.8 µM)	relative viability ([8]; first compound 2.53 µM)	relative viability ([8]; first compound 8 µM)	relative viability ([1]; first compound 2.53 µM)
O=c1cc(-c2cccc3c2Sc2ccccc2S3)oc(N2CCOCC2)c1 + Cc1cc(Nc2cc(N3CCN(C)CC3)nc(Sc3ccc(NC(=O)C4CC4)cc3)n2)n[nH]1 [Tozasertib] (partner 0.1 µM)	0.641	0.662	0.758	0.708	0.669	0.668	0.625	0.672	0.669	0.445	0.414	0.393	0.4	0.43	0.492	0.386	0.426	0.411	0.399	0.295	0.277	0.245	0.273	0.266	0.417	0.478	0.539	0.411	0.389	0.383	0.375	0.502	0.472	0.421	0.252	0.256	0.23	0.24	0.232	–
COc1nc(C)cnc1NS(=O)(=O)c1cccnc1-c1ccc(-c2nnco2)cc1 [Zibotentan] + COc1cccc2cc(-c3nc([C@H]4CC[C@H](C(=O)O)CC4)n4ncnc(N)c34)[nH]c12 [OSI-027] (partner 0.5 µM)	0.54	0.509	0.566	–	0.694	0.641	0.701	0.72	–	0.423	0.42	0.424	0.443	–	0.255	0.241	0.256	0.242	–	0.349	0.366	0.393	0.389	–	0.609	–	0.521	0.646	–	0.295	0.24	0.264	0.31	–	0.439	0.393	0.427	0.465	–	0.649
COc1nc(C)cnc1NS(=O)(=O)c1cccnc1-c1ccc(-c2nnco2)cc1 [Zibotentan] + Cc1cc(Nc2cc(N3CCN(C)CC3)nc(Sc3ccc(NC(=O)C4CC4)cc3)n2)n[nH]1 [Tozasertib] (partner 0.1 µM)	0.871	0.699	0.692	–	0.678	0.552	0.767	0.717	–	0.464	–	0.43	0.427	–	0.499	0.403	0.47	0.576	–	0.284	0.229	0.274	0.329	–	0.479	–	0.562	0.493	–	0.431	0.479	0.441	0.442	–	0.252	0.236	0.242	0.271	–	0.738
